Consider 1 molecule from patent US8278100B2, “Lasonolide compounds as reagents for inducing premature chromosome condensation and methods for treating disorders” (The United States of America, as Represented by the …, priority 2008, dated 2012).

Several values for one entry are separate records, joined by “and”; a condition that tells them apart may be missing. Equal values may be shown once. Entries after “also recorded” stand apart in the source; their conditions may differ. Some results are limits rather than exact numbers.

Assay [1] relates to MDA-MB-231 cells. Put plainly: Transwell migration assay. In kind it is cell-based, human. As to conditions: 6 h. On the procedure:
The effect of Lasonolide A on the migration of breast cancer MDA-MB-231 cells was determined in a transwell Boyden Chamber (Costar, Mass.) using a polycarbonate filter with a pore size of […], which was coated with 0.2% gelatin, balancing with gelatin at 37° C. for 1 h, then removal of the gelatin and covering with DMEM without serum overnight at 37° C. In the standard assay, after removing medium, 0.1 mL of cell suspension (1×10^5 cells/ml, in serum-free medium) with Lasonolide A or 0.1% DMSO (v/v) was added to the upper compartment of the chamber. The lower compartment contained 0.6 mL of DMEM medium supplemented with 20% serum. After incubation for 6 h at 37° C., the filter was removed and fixed with ethanol. Cells remaining on the upper surface of the filter (non-migrated) were scraped gently. Then, migrated cells on the lower surface of the filter were stained with 0.1% crystal violet and taken photographs under microscope (FIG. 6C).

In assay [2] the test system is tumor cells. Put plainly: Premature chromosome condensation (PCC) induction, cells not specified. Format: cell-based. On the procedure: (§1) Burkitt's Lymphoma CA46 cells (500,000) (FIG. 1B) or breast cancer MDA-MB-231 cells (500,000) (FIG. 1A) were treated by 100 nM Lasonolide A (stock solution 100 μM in DMSO) for 1 h. Lymphocytes were treated with 200 nM Lasonolide A for 1 h. Cells were harvested with centrifuging on 2,000 rpm for 5 min at 4° C. Pellets were washed once by PBS and re-suspended in 1 mL PBS. 200 μL cells mixture were added to the chamber for cytospining. Cells were cytospun on 800 rpm for 10 min; slides were fixed in fresh-made 4% paraformaldehyde fixation for 20 min at room temperature, then moved to 70% ethanol for 20 min. Slides were stained with Propidium Iodide (“PI”) (20 μg/mL) and RNase A (100 μg/mL) for 15 min. Slides were washed with PBS for three times and mounted with Vectashield anti-fade mounting media (Vector Laboratories, Inc., Burlingame, Calif.). Images were taken using a Nikon Eclipse TE-300 confocal microscope.

Assay [3] relates to CA46 cells. Put plainly: Cell cycle analysis. As to conditions: 24 h treatment. Format: cell-based, human. The method, then:
After treatment, cells were collected, washed twice with ice-cold PBS, and fixed overnight with 70% precooled (−20° C.) ethanol. Fixed cells were resuspended in PBS containing 0.02 mg/mL RNase A (Roche, USA) and incubated at 37° C. for 15 min. Next, the cells were stained with 0.01 mg/mL propidium iodide (Sigma) in the dark at room temperature for 10 min. The DNA content was analyzed by flow cytometry using a FACSCalibur (Becton Dickinson, Sunnyvale, Calif.) with Cellquest and Modfit LT3.0 software (Becton Dickinson) (FIGS. 1D & 2A).

Assay [4] deals with Burkitt's Lymphoma CA46 cells. Put plainly: PCC induction and PI staining. The note with it: 1 h. In kind it is cell-based, human. On the procedure: as §1
The test system of assay [5] is breast cancer MDA-MB-231 cells. Put plainly: PCC induction and PI staining. In kind it is cell-based, human. As to conditions: 1 h. On the procedure: as §1
The subject of assay [6] is actin network in MDA-MB-231 cells. Put plainly: Actin staining with phalloidin. Format: cell-based, human. On the procedure: Cells were fixed with 4% paraformaldehyde and permeabilized with PBS containing 0.1% Triton X-100. After blocking with 1% bovine serum albumin for 30 min. Cells were incubated with Alexa Fluor 488-conjugated phalloidin (Molecular Probes) to stain actin stress fibers.

Assay [7] relates to phosphorylated-H3 Ser28 in CA46 cells. Put plainly: Immunofluorescence assay. In kind it is cell-based, human. The method, then:
After drug treatments, CA46 cells were cytospun on the slides. Slides were fixed for 20 min with 4% paraformaldehyde in PBS (pH 7.4), and washed twice with PBS. After incubation for 20 min with 70% ethanol and washing with PBS, the cells were incubated in blocking buffer [8% bovine serum albumin (BSA) in PBS] for 1 h before incubation for 2 h with primary antibodies against phosphorylated-H3 Ser28 (Cell signaling) (FIG. 5). Slides were incubated for additional 1 h with the Alex488-conjugated secondary antibody (Alexa Fluoro 488 donkey anti-goat IgG, Molecular Probes, Invitrogen, CA). After three washes in PBS, cells were stained with 0.5 μg/mL propidium iodide (PI) and 100 μg/mL RNase A (Sigma, Mo.) for 15 min in the dark. Finally, slides were washed with PBS for three times and mounted with Vectashield anti-fade mounting media (Vector Laboratories, Inc., Burlingame, Calif.). Images were taken using a Nikon Eclipse TE-300 confocal microscope.

Assay [8] deals with T1, PP2A (Homo sapiens, UniProt P67775).
T1 construct: purchased Upstate
T1 sequence (P67775 whole entry): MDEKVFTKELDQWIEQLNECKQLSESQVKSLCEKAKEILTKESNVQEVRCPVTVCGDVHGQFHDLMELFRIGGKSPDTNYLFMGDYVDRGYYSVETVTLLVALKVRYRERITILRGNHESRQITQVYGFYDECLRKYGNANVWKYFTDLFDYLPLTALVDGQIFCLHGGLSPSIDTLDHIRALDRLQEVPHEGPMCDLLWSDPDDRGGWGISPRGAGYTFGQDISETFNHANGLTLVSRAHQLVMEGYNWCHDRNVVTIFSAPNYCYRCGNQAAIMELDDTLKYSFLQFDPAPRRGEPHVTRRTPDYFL
T1 sequence (P30153 2-589 partner limits assumed): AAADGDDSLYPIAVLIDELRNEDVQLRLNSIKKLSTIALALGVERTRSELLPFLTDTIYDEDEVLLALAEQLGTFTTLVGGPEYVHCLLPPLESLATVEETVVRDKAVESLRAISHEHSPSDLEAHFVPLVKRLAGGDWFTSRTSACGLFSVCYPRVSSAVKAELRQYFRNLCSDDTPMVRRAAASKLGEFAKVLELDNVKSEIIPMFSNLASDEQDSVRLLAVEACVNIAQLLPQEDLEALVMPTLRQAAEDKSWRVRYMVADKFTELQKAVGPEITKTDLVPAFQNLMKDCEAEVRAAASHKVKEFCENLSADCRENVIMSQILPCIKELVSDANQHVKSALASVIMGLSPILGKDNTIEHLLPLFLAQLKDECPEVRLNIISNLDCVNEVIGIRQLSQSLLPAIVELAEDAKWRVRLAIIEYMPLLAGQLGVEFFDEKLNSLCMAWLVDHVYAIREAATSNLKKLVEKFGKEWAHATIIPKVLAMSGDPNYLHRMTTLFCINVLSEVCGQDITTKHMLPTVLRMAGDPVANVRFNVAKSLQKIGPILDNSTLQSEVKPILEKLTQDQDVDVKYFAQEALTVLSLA
Put plainly: In vitro phosphatase activity assay. As to conditions: compared with Okadaic Acid. Format: biochemical. On the procedure:
(§2) The inhibitory effect of active agents on PP2A or PP1 enzyme activity was determined by measuring the generation of free PO4 from the phosphopeptide RRA(pT)VA, using the molybdate-malachite green-phosphate complex assay. The phosphatase assay was performed in a PP2A-specific reaction buffer [50 mM imidazole (pH 7.2), 0.2 mM EGTA, 0.02% 2-mercaptoethanol, 0.1 mg/mL of bovine serum albumin] using 10 μ/M phosphopeptide substrate and 0.03 Units PP2A (Upstate), or in PP1-specific reaction buffer [50 mM HEPES, 2 mM Dithiothreitol, 0.025% Tween-20, 0.1 mM EGT 100 mM NaCl] together with 100 μM phosphopeptide substrate and 0.03 Units PP1 (Biolabs). Different concentrations of active agents were added in the reaction system. After a 20-min incubation at 30° C., molybdate dye was added, and the amount of free phosphate generated was determined from the optical density at 630 nm (VERSAmax, Molecular Device), using a standard curve for free phosphate. Phosphatase activity was defined as picomoles of free PO4 generated per minute per microgram of protein, and phosphatase activity without drug was defined as 100% (FIGS. 3C & 3D).

Assay [9] addresses T2, PP1 (Oryctolagus cuniculus, UniProt P62139).
T2 construct: purchased Biolabs
Put plainly: In vitro phosphatase activity assay. The note with it: compared with Okadaic Acid. In kind it is biochemical. On the procedure: as §2

The subject of assay [10] is chromatin condensation. Put plainly: DNase I sensitivity assay. Format: cell-based. As to conditions: 1 h. The method, then:
Cells were treated with different concentrations of Lasonolide A for 1 h and were collected with centrifuging. The centrifuged cells were washed with PBS and fixed with 1.5% PFA for 15 min on ice. After washing by PBS, fresh PBS was added (300 μL) to re-suspend the pellet, then 700 μL 70% EtOH was gently added and the mixture was maintained at −20° C. overnight. The solution was washed by PBS once, then washed by 1× DNase I reaction buffer (500 μL), then incubated in 200 μL Reaction buffer with 4 Units DNase I (2 μL), 37° C., 10 min. The solution was washed by PBS and incubated in 100 μL Polymerase reaction buffer including 16 μM dATP, 16 μM dCTP, 16 μM dGTP, 16 μM dUTP-FITC, 100 unit/mL Polymerase I, 37° C. 60 min. FL1 channel of Green fluorescence signal were measured with flow cytometer (FIG. 1C).

T2 sequence (P62139 whole entry): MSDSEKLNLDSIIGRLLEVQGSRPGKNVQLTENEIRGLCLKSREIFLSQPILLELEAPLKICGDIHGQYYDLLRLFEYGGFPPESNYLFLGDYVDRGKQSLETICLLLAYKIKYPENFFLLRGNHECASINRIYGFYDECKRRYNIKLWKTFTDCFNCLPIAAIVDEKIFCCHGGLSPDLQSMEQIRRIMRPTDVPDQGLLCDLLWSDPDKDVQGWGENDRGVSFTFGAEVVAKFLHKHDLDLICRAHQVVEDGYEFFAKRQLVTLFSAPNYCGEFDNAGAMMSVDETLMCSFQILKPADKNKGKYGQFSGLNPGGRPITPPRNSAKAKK

`C=C(CCC(C)C)COC(=O)[C@H](O)C/C=C\C[C@@H]1O[C@@H]2/C=C/C/C=C/C(C)=C\[C@H]3O[C@@H](C/C=C/C=C/C(=O)O[C@H](C2)[C@@]1(C)CO)C[C@H](O)[C@H]3C` [Lasonolide A]: the cell migration result in assay [1] is listed as “inhibited migration”. Further, the “reversibility of PCC induction” value in [2] is given as “reversible”. Moreover, the “time to PCC induction” value in assay [2] (nanomolar concentrations) was ≤ 1 h. Besides, the “PCC induction compared with Okadaic Acid” value in assay [2] (tumor cells and normal human lymphocytes) is listed as “more potent ability of PCC induction”. In addition, the cell cycle arrest result in assay [3] is “induced cell cycle arrest at G2/M phase”. For the same molecule, in assay [4] (100 nM Lasonolide A), the “cells with premature chromosome condensation (PCC)” value was 97.9% and 99.5%. Further, the “PCC induction (in words)” value in assay [4] (100 nM) and in [5] (100 nM) was “induced premature chromosome condensation (PCC)” throughout. The “cells with PCC” value in [5] came to 13%. Moreover, in [6], the “actin network / cytoskeleton” value is “reorganized the cytoskeleton system; also recorded: reorganized the actin network”. For the same molecule, the “phosphorylation of H3 (Ser28), immunofluorescence” value in [7] is given as “showed the phosphorylation of H3 (Ser28)”. In assay [8], the “inhibitory effect on PP2A” value is on record as “weaker inhibitory effect”. In assay [9], the “inhibitory effect on PP1” value is on record as “weaker inhibitory effect”. The “DNase I sensitivity, fluorescence shift” value is given as “evidence of an effect” in assay [10] (100 nM) and “a greater change, affecting signal amplitude” in assay [10] (200 nM).
